CNC1Oc2cc(Cl)cc(-c3ccc(Cl)cc3C)c2O1 (stereo unspecified) and Cc1ccc(-c2cc(F)c3c(c2)CC(CN)O3)cc1 (stereo unspecified) cannot be ordered by melting point: > 250 °C for the first, > 250 °C for the second.

Compared with CCN1CCc2cc(Nc3ncc(Cl)c(Nc4ccccc4C(=O)NC)n3)c(OC)cc2CC1=O, COc1ccc(Cc2nc3c(cnn3C(CCCc3ccccc3)C(C)O)c(=O)[nH]2)cc1OC (stereo unspecified) is lower in melting point: 120 to 132 °C for the first, 85 °C for the second.

Compared with CCCCNCC1CCn2c(nc3ccccc32)S1 (stereo unspecified), CCCCCn1cc(C(=O)O)c2ccc(Cl)cc21 is higher in melting point: 122 to 124 °C for the first, 152 to 154 °C for the second.

First: CCC(C)(CC)NC(=O)C1(O)CC(C)(C)NC(C)(C)C1
Second: CCC1CC(C)(C)Oc2c1cc(C(C)=O)c(O)c2C (stereo unspecified)
The melting point of the first is higher: 127 to 129 °C for the first, 92 to 93 °C for the second.

Compared with O=[N+]([O-])c1c(O)c(O)cc2c1C(=NO)CC2, O=[N+]([O-])c1cnc2ccc(F)cc2c1Nc1ccccc1F is lower in melting point: 200 to 201 °C for the first, 161 to 162 °C for the second.

First: CC(C)(CO)C(=O)C(Oc1ccc(Cl)cc1)n1cncn1 (stereo unspecified)
Second: CCCc1nn(C)c2c(=O)n(CCNc3ccc(OC(C)(C)C(=O)O)cc3)c(CC)nc12
The melting point of the first is lower: 110 to 111 °C for the first, 136 to 138 °C for the second.

Compared with CC(=O)c1cnc([N+](=O)[O-])n1C, Cn1cc([N+](=O)[O-])c(C(=O)NC2CCCC2)n1 is higher in melting point: 81 to 83 °C for the first, 176 to 177 °C for the second.

Compared with CCOC(=O)c1ccc(NCc2cc(Br)ccc2OCc2ccccc2)c(OC)c1, COCc1c(C(=O)OCCO)ncc2[nH]c3ccc(OCc4ccccc4)cc3c12 is higher in melting point: 78 °C for the first, 165 to 167 °C for the second.

First: O=C1NCCN1C1CCCc2ccccc21 (stereo unspecified)
Second: O=C1CC2(c3ccccc3)CCCC=C2C(=O)N1 (stereo unspecified)
The melting point of the first is lower: 134 to 140 °C for the first, 241 to 243 °C for the second.

First: O=c1nc(-c2ccc3c(c2)OCCO3)c2ccc3c(c2[nH]1)OCO3
Second: Cc1nc2ccc3c(c2o1)OC(CN1CC=C(c2ccccc2)CC1)CO3 (stereo unspecified)
The melting point of the first is higher: > 300 °C for the first, 170 to 173 °C for the second.

First: CN(C)C(=O)C1CC2CCC1c1[nH]c3ccccc3c12 (stereo unspecified)
Second: CC1(C(CCO)C(N)=O)OCCc2c1[nH]c1ccccc21 (stereo unspecified)
The melting point of the first is higher: 231 to 232 °C for the first, 159 to 161 °C for the second.

Compared with Cc1c(NC(=O)c2ccc(-c3ccc(F)cc3)cc2F)ccc2cc(CN3CCCCCC3)cnc12, NC(=O)C1CN(Cc2ccccc2)CCN1CCCC(c1ccc(F)cc1)c1ccc(F)cc1 (stereo unspecified) is lower in melting point: 159 to 160 °C for the first, 79.2 °C for the second.

First: C#CCCN1CCC(O)(Cc2ccccc2)CC1
Second: CC(=O)Nc1ccc(C#CCCN2CC=C(c3ccccc3)CC2)cn1
The melting point of the first is lower: 51 to 53 °C for the first, 169 to 170 °C for the second.

Compared with COc1ccc(-c2cc3cc(F)c(F)cc3[nH]2)cc1NC(=S)N[C@@H](COC(C)(C)C)C(=O)OC(C)(C)C, COc1cccc([C@H]2O[C@H](CC(=O)NC(C)CC(=O)O)C(=O)N(CC(C)(C)C)c3ccc(Cl)cc32)c1OC (stereo partly specified) is higher in melting point: 111 to 114 °C for the first, 128 to 130 °C for the second.

Compared with CCCn1cnc2c1c(=O)n(CCCCCCO)c(=O)n2C, COc1ccc(/C=C/c2nc3c(c(=O)n(C)c(=O)n3C)n2C)c(OC)c1OC is higher in melting point: 68 to 70 °C for the first, 187 to 188 °C for the second.

First: CCOC(=O)c1cc(-c2ccccc2)n(-c2cccc(C(C)=O)c2)c1C
Second: CCOC(=O)CCn1c(-c2ccccc2)c(-c2ccccc2)n(-c2ccccc2)c1=O
The melting point of the first is lower: 102 to 104 °C for the first, 111 to 112 °C for the second.

First: O=C(CC(=O)c1cccn1Cc1ccc(F)cc1)c1ccncn1
Second: CCOC(=O)C(Cc1ccc(F)cc1)C(=O)c1ccc(C(F)(F)F)cc1 (stereo unspecified)
The melting point of the first is higher: 128 to 129 °C for the first, 52 to 53 °C for the second.

First: CC1OC(=S)Nc2ccc(-c3cccc(F)c3)cc21 (stereo unspecified)
Second: C[C@H]1C(=O)Nc2c(N)cc(Cl)cc2N1C(=O)OCc1ccccc1
The melting point of the first is higher: 173 to 174 °C for the first, 152 to 154 °C for the second.

First: CC(C)c1ccc2ncn(/C=C/C(=O)O)c(=O)c2c1
Second: COC(=O)/C=C/n1cnc2ccc(C3CC3)cc2c1=O
The melting point of the first is higher: 242 to 243 °C for the first, 178 °C for the second.

Compared with CCCc1c(O)ccc2c(=O)cc(-c3ccc(C(=O)OCC)cc3)oc12, CCCC(=O)c1cnc2c(COC(=O)c3ccc(OC)cc3)cccc2c1Nc1ccc(O)cc1C is lower in melting point: 225 to 226 °C for the first, 171 to 175 °C for the second.

First: CCO[C@@H]1[C@@H](OC)[C@H](C)O[C@@H](ON=Cc2ccc(C#Cc3ccc(OC(F)(F)F)cc3)cc2)[C@@H]1OC
Second: COc1ccc2c(c1)COCc1cc(OC)c(OC)c(OC)c1-2
The melting point of the first is lower: 82 to 87 °C for the first, 151 to 153 °C for the second.

First: NNc1ncccc1Br
Second: Clc1cc(Br)cnc1Br
The melting point of the first is higher: 146 to 148 °C for the first, 40 to 41 °C for the second.

First: Cc1ccc2c(=O)nc(-c3cccc(CCC(=O)OC(C)(C)C)n3)sc2c1
Second: CC(C)CNC(=O)COC1c2ccccc2C(=O)N1c1ccc2ccc(Cl)nc2n1 (stereo unspecified)
The melting point of the first is lower: 135 °C for the first, 146 °C for the second.

First: O=[N+]([O-])c1cccc(CSc2nc3cnccc3[nH]2)c1
Second: O=C(NCCSCc1ccccc1)c1c(Cl)cccc1Cl
The melting point of the first is higher: 208 to 210 °C for the first, 96 to 97 °C for the second.

First: O=C1CCC(c2ccc3c(c2)C2(CC2)C(=O)N3)=NN1
Second: O=C(O)c1cc(-n2nc3n(c2=O)CCCC3)c(F)cc1Cl
The melting point of the first is higher: 256 to 257 °C for the first, 91 to 94 °C for the second.

Compared with COc1ccc2c(c1)CCC(c1ccccc1)=C2c1ccc(O)cc1, COc1ccc(C2=C(c3ccc(O)cc3)CCCc3cc(OCc4ccccc4)ccc32)cc1 is higher in melting point: 158 to 162 °C for the first, 173 to 175 °C for the second.

First: NC(=O)c1c(Cl)c(-c2ccccc2)n2c1CN(C(=O)CCC1CCCCC1)CC2
Second: c1ccc(-c2cc3n(n2)CCNC3CC2CCCCC2)cc1 (racemic)
The melting point of the first is higher: 181 to 182 °C for the first, 128 to 130 °C for the second.

First: O=C1NC[C@@H](C(=O)NCCO[N+](=O)[O-])O1
Second: CC(=O)Nc1ccc(N2CC(CNC(C)=S)OC2=O)cc1F (stereo unspecified)
The melting point of the first is lower: 101 to 103 °C for the first, 200 to 201 °C for the second.

Compared with COC(=O)c1cc2ccc(Cl)cc2n1CC#N, COC(=O)Cn1c(C(=O)OCc2ccccc2)cc2ccccc21 is lower in melting point: 177 to 178 °C for the first, 94 °C for the second.

Compared with O=C1NC(=O)c2c1c(-c1ccccc1Cl)cc1c2c2cc(O)ccc2n1CCC(O)CO (stereo unspecified), Cc1c(-c2ccccc2)c2c(c3c1[nH]c1ccc(O)cc13)C(=O)NC2=O is higher in melting point: 263 to 267 °C for the first, 270 to 280 °C for the second.

First: CC1(C)CCc2c(-c3ccoc3)nc3sc4c(NCCc5c[nH]cn5)ncnc4c3c2C1
Second: CNc1nc2ccc(-c3nc4cc(C)ccn4c3C)cc2s1
The melting point of the first is higher: 265 to 267 °C for the first, 191 to 194 °C for the second.

Compared with COc1cc(NC(C)=O)cc(C(F)(F)F)c1, COC(=O)Cc1c(F)cc(O)cc1F is lower in melting point: 123 to 124 °C for the first, 75.5 to 77.5 °C for the second.

First: CC(C)NCC(O)COc1ccc2c(=O)cc(-c3ccc(OCc4ccccc4)c(OCc4ccccc4)c3)oc2c1 (stereo unspecified)
Second: CCCCCCCCCCCCCCCCCCOc1cccc(C(=O)OC)c1OCCCOc1ccc(OCc2ccccc2)cc1
The melting point of the first is higher: 177 to 179 °C for the first, 43 to 45 °C for the second.

First: O=C(O)CCc1ccc(Oc2ccc3c(c2)S(=O)(=O)NC2CCCN32)cc1 (stereo unspecified)
Second: COC(=O)c1ccc(C(C(N)=O)C(C)c2cc(Cl)ccc2N2CCCC(C)C2)cc1 (stereo unspecified)
The melting point of the first is higher: 178 to 183 °C for the first, 160 to 162 °C for the second.

First: CC(C)(C)OC(=O)[C@@H]1CCCN1CC(=O)[C@H](Cc1ccccc1)NC(=O)OCc1ccccc1
Second: NC(=O)N(O)CCNC(=O)c1ccccc1Oc1ccccc1
The melting point of the first is lower: 98 to 99 °C for the first, 182 to 185 °C for the second.

Compared with CS(=O)(=O)OCCc1ccc(-c2cccnc2)cc1, Cc1nnc(-c2ccc3occ(-c4ccc(S(=O)(=O)CF)cc4)c3c2)o1 is higher in melting point: 66 to 68 °C for the first, 191 to 192 °C for the second.

First: CC1CN(C)CC=C1C(=O)N1c2ccccc2NC(=O)c2ccccc21 (stereo unspecified)
Second: O=C(OC1N=C(c2ccccc2)c2ccccc2NC1=O)c1cc2ccccc2[nH]1 (racemic)
The melting point of the first is lower: 223 to 224 °C for the first, 271 to 273 °C for the second.

First: C(=CCON(c1ccccc1)c1ccccc1)CON(c1ccccc1)c1ccccc1
Second: NC(=O)c1ccc(N2CCN(CCC3=CCCc4ccccc43)CC2)cc1
The melting point of the first is lower: 74 to 76 °C for the first, 216 °C for the second.

First: O=C(O)[C@@H]1CSC2(CCSCC2)N1
Second: Cc1cn2c(c1C(=O)OC(C)C)SCC2CC(N)=O (stereo unspecified)
The melting point of the first is higher: 196 °C for the first, 143 to 146 °C for the second.

Compared with COC(=O)c1ccc(Br)c(S(C)(=O)=O)c1, COC(=O)c1nc2nc(COC(C)=O)cc(Cl)n2n1 is lower in melting point: 148 to 149 °C for the first, 120 °C for the second.

Compared with CC(=O)NCc1ccc2c(c1)ncn2-c1cccc(-c2nccs2)c1, CCCc1cc(Nc2ccn(-c3ccccc3)n2)cc(CCC)c1OC(C)=O is lower in melting point: 156 °C for the first, 71 to 74 °C for the second.

First: O=C(F)N(SN1CCOCC1)c1ccccc1
Second: N#CC1=C(c2cccs2)Nc2n[nH]cc2C1c1ccccc1[N+](=O)[O-] (stereo unspecified)
The melting point of the first is lower: 71 to 72 °C for the first, 165 °C for the second.

First: COc1cc2c(cc1N)N(C)C(=O)CN(CC#N)C2
Second: CCOc1cc2c(Cl)c(C#N)cnc2cc1NC(C)=O
The melting point of the first is lower: 128 to 132 °C for the first, 202 to 204 °C for the second.

Compared with CCOC(=O)C(=CNc1ccc(F)c(F)c1OCC(C)O)C(=O)OCC (stereo unspecified), CCOC(=O)CNC(=O)c1cc(C(=O)c2ccccc2Cl)c(N)s1 is higher in melting point: 52 to 55 °C for the first, 216 to 218 °C for the second.

First: COc1ccc(C(=C2CCCCC2)c2ccc(OC)c(OC)c2)cc1OC
Second: CCC(C)c1nn(-c2ccc(C(F)(F)F)cn2)cc1CCCOc1c(CC(=O)O)cccc1OC (stereo unspecified)
The melting point of the first is lower: 107 °C for the first, 117 to 118 °C for the second.

First: CC1OC(n2cnc3c(N)nc(N)nc32)C(O)C1O (stereo unspecified)
Second: CCc1nc(NC)nc2c1ncn2C1CC(F)C(CO)O1 (stereo unspecified)
The melting point of the first is higher: 135 to 138 °C for the first, 99 to 100 °C for the second.

Compared with O=C1C(c2ccc(O)cc2)=C(Br)c2ccc(O)cc21, Cc1ccc(S(=O)(=O)OCC2Cc3cccc(Nc4ccc(C)c(C)c4)c3O2)cc1 (stereo unspecified) is lower in melting point: 240 °C for the first, 88 to 90 °C for the second.

First: O=S(Cc1cc(OCc2ccc(C(F)(F)F)cc2)ccn1)c1nc2cscc2[nH]1 (stereo unspecified)
Second: CC(=O)NCCNC(=O)c1[nH]c(C)c(-c2nc3ccc(C(=O)c4ccccc4)cc3[nH]2)c1C
The melting point of the first is lower: 149 °C for the first, 272 to 273 °C for the second.

Compared with OCc1ccc(O)c(CO)c1CNCCCCCCOCC1CCCCC1, O=C(O)COc1nc(F)c(Cl)cc1Cl is higher in melting point: 72 to 74 °C for the first, 140 to 144 °C for the second.

First: CC(N=C(NN)NN)C(=O)O (stereo unspecified)
Second: CCOP(=O)(OCC)C(Nc1cnccn1)P(=O)(OCC)OCC
The melting point of the first is higher: 175 to 177 °C for the first, 56 to 59 °C for the second.

With CC(C)(C)c1cc(-n2nc3ccc(S(=O)(=O)c4ccc5nn(-c6cc(C(C)(C)C)cc(C(C)(C)C)c6O)nc5c4)cc3n2)c(O)c(C(C)(C)C)c1 the melting point was > 300 °C.
